Key:
[1] = biological target: T1, β-galactosidase in Psi-2-BAG-α cells (Escherichia coli, UniProt P00722); assay: FDG detection of β-galactosidase in Psi-2-BAG-α cells, passive load vs "SUPERFECT" complex; format: cell-based; settings: for Fluorescence (w "SUPERFECT") / Fluorescence (w/o "SUPERFECT"): Cells + Supernatant, 2 hrs, ex 485/20, em 530/25; for Fluorescence (w "SUPERFECT"): 0.6 mM FDG with 25 μl "SUPERFECT" carrier; for Fluorescence (w/o "SUPERFECT"): 0.6 mM FDG, passive load
T1 construct: expressed in transfected cells; host or cells: Psi-2-BAG-α cells (own knowledge: mouse NIH-3T3-derived psi-2 packaging line stably carrying the BAG lacZ retroviral vector)
Protocol: A first experiment was conducted to determine the effect of complex formation on FDG detection of β-galactosidase in Psi-2-BAG-α cells. First, FDG detection was measured using FDG without a transporter or carrier complexed thereto (passive load). This measured value was compared to a measurement using a complex of FDG and an activated polyamino dendrimer (e.g., “SUPERFECT”, which is a trademark of Qiagen N.V.).
For the passive load test, two vials of cells were prepared. First, two vials each having 330,000 psi-2-BAG-α cells suspended in 250 μl 0.6 mM FDG in Opti-MEM were prepared. A first vial of cells was incubated at 4° C. for 2 hrs and the second vial of cells was incubated at 37° C. for 2 hrs.
For the polyamino dendrimer complex, two vials of cells were prepared in the following manner. First, two vials each having 330,000 psi-2-BAG-α cells suspended in 250 μl 0.6 mM FDG in Opti-MEM containing 25 μl “SUPERFECT” as a polycationic carrier were prepared. The first vial of cells was incubated at 4° C. for 2 hrs and the second vial of cells was incubated at 37° C. for 2 hrs.
Following incubation, 20 μl triplicate samples of the above four cell suspensions (passive/4° C., passive/37° C., “SUPERFECT”/4° C., “SUPERFECT”/37° C.) were added to a 96-well plate.
(§1) The 96-well plate was read on a Cytofluor 4000 with excitation filter 485/20 and emission filter 530/25. The data was analyzed as triplicate averages.

[2] = tested on: β-galactosidase complementation in FRAP/FKBP12 (B14) cells; assay: FDG detection of rapamycin-induced β-galactosidase complementation in FRAP/FKBP12 (B14) cells; format: cell-based; settings: for Fluorescence (w "SUPERFECT") / Fluorescence (w/o "SUPERFECT"): 90 min at 37° C.; for Fluorescence (w "SUPERFECT"): 0.6 mM FDG with "SUPERFECT" carrier; for Fluorescence (w/o "SUPERFECT"): 0.6 mM FDG, passive load; for Fluorescence signal to noise ratio (S/N): Induced cells
Protocol: A second experiment was conducted to determine the effect of fluorescent substrate complex formation on FDG detection of rapamycin-induced β-galactosidase complementation in FRAP/FKBPI2 (B14) cells.
A 96-well plate was plated with FRAP/FKBP12 cells at 10,000 cells per well. Half of the cells were incubated overnight with rapamycin to induce β-galactosidase complementation. The next day, the cells were washed with Opti-MEM. Half of the cells were incubated for 90 min at 37° C. with 254 μl 0.6 mM FDG (fluorescein-di-β-D-galactoside) in Opti-MEM. The remaining cells were incubated 90 min at 37° C. with 0.6 mM FDG, containing “SUPERFECT” as a carrier (14 μl “SUPERFECT” in 240 μl 0.6 mM FDG in Opti-MEM).
as §1

[3] = Induced cells (rapamycin overnight)

T1 sequence (P00722 whole entry): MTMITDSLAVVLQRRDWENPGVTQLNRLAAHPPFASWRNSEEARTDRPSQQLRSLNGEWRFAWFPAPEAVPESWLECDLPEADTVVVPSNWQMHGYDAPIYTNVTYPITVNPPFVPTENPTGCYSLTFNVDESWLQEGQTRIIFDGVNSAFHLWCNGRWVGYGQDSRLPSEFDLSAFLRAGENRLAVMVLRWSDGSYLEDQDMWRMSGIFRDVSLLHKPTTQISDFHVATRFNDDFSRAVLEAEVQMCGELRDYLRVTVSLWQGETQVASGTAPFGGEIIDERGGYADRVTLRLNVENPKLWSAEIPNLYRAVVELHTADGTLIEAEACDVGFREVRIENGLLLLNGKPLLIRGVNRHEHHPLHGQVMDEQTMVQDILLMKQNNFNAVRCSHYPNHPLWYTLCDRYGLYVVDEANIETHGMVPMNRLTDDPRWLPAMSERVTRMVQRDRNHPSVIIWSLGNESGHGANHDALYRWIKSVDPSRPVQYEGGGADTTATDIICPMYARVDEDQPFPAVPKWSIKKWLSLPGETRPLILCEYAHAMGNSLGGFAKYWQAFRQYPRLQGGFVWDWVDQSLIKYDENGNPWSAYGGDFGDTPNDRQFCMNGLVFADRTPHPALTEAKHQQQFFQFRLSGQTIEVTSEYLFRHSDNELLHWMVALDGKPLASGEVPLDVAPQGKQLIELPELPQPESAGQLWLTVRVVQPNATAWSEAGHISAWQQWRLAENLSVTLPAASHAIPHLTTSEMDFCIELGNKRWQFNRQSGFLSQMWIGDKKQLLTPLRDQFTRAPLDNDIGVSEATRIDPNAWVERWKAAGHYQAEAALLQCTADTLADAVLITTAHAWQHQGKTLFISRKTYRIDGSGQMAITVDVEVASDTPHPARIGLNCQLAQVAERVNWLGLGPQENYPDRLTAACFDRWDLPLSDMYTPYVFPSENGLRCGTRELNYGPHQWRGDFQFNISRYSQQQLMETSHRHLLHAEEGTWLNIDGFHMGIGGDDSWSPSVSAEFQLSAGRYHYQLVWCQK

O=C1OC2(c3ccc(O[C@@H]4O[C@H](CO)[C@H](O)[C@H](O)[C@H]4O)cc3Oc3cc(O[C@@H]4O[C@H](CO)[C@H](O)[C@H](O)[C@H]4O)ccc32)c2ccccc21 [FDG, fluorescein di-β-D-galactopyranoside]
Fluorescence (w "SUPERFECT") ([1]; 4° C.): 8,343 | Fluorescence (w/o "SUPERFECT") ([1]; 4° C.): 807 | Fluorescence (w "SUPERFECT") ([1]; 37° C.): 33,943 | Fluorescence (w/o "SUPERFECT") ([1]; 37° C.): 2492 | Increase of fluorescence signal with Superfect-assisted load ([1]; Superfect-assisted load of FDG vs passive load): ≥ 10 fold | Fluorescence (w "SUPERFECT") [2, 3]: 12,721 | Fluorescence (w/o "SUPERFECT") [2, 3]: 594 | Fluorescence signal to noise ratio (S/N) ([2]; "SUPERFECT" assisted load of FDG): approximately 37 | Fluorescence signal to noise ratio (S/N) ([2]; uncomplexed or passive load of FDG (w/o "SUPERFECT")): about 2 | Fluorescence (w "SUPERFECT") ([2]; Uninduced cells): 338 | Fluorescence (w/o "SUPERFECT") ([2]; Uninduced cells): 253
